Consider three molecules from patent US6566084B1, “Catalytic antibodies against cocaine and methods of using and producing same” (priority 1992, dated 2003).

Some results are limits rather than exact numbers.

The conditions of data set [1]: in vivo; cited from earlier work.
The nature of data set [2]: Spontaneous hydrolysis of the methyl ester of cocaine to benzoyl ecgonine (HPLC). The following applies: buffer, pH 7.
In another data set the test system is mAb 3B9. The experiment in a line: Inhibition of 3B9-catalyzed cocaine hydrolysis. The format is biochemical, BALB/c mice. Particulars: 1 mM.
The next data set has as its system mAb 6A12. The data set can be described thus: Inhibition of 6A12-catalyzed cocaine hydrolysis. Particulars: 1 mM.
The conditions of data set [3]: equine BChE, ph7.4, published sources; cited from earlier work.

Take `COC(=O)[C@H]1[C@@H](OC(=O)c2ccccc2)C[C@@H]2CC[C@H]1N2C` [cocaine]: the “dose excreted unchanged in the urine” value in data set [1] is recorded as less than 10%. The molecule further gave a half-life in data set [2] of 20 h.
Consider `CNC(=O)Oc1ccc2c(c1)[C@]1(C)CCN(C)[C@@H]1N2C` [eserine], for which the “effect of serum esterase inhibitor on enzyme” value in the data set with mAb 3B9 and in the data set on mAb 6A12 was “unaffected” each time.
“BChE: equine butyrylcholinesterase, the principal cocaine esterase in serum”: in data set [3], the Kcat is 0.02 s⁻¹ and the Km is 38 µM.
